Where two headings read alike, the source gives them in different places.
Key:
[1] = assay type: physicochemical
Procedure: A hydraulic conveyor of a plant for sorting and packaging apples is selected containing a volume of 90 m^3 of a conveying composition containing “BELLIS” at a concentration of 50 m g/l (and boscalid at a concentration of 22 μg/l). A flow rate of the conveying composition of 36 m^3/h is established in the external circuit using the circulation pump 14 and a flow rate of photoreactive composition of 270 cm^3/h is established using the distribution pump 19, the photoreactive composition being an aqueous solution of hydrogen peroxide at an initial concentration of 400 g/l, i.e. 108 g or pure hydrogen peroxide. Under these conveying composition flow conditions, all of the volume of the conveying composition contained in the plant is theoretically treated within 2.5 hours. The composition to be sanitised obtained at the inlet of the sanitising device thus has an initial hydrogen peroxide proportion in the order of 3 ppm and is sufficient to allow the decontamination of the composition to be sanitised at the outlet of the sanitising device formed of 6 photolysis chambers mounted in series, each chamber comprising five fluorescent tubes with an individual power of 200 W.
The results obtained are shown in Table 1 hereinafter in which the concentration values of boscalid in the composition to be sanitised at the inlet of the photolysis tank (EC), at the outlet of the third chamber (S3E) of the photolysis tank and at the outlet of the sixth chamber (S6E) of the photolysis tank are given in μg/l. The column S6E/EC represents the ratio multiplied by 100 of the boscalid concentration at the outlet of the sixth chamber (S6E) of the photolysis tank to the boscalid concentration at the inlet of the photolysis tank (EC). The column C/C0 represents the ratio of the boscalid concentration measured at the inlet of the photolysis tank over time to the initial boscalid concentration (t=0).

[2] = assay type: physicochemical; settings: 19 seconds
Text: A hydraulic conveyor of a plant for sorting and packaging apples containing a volume of 90 m^3 of water as composition for conveying Ariane, Rosy Glow and Pink Lady apples comprises a sanitising device in accordance with the invention formed of six photolysis chambers mounted in series, each chamber comprising five fluorescent tubes having an individual power of 200 W. The flow rate of the composition for conveying apples in the sanitising device is 36 m^3/h. It has been observed that the plurality of photolysis chambers mounted in series allows a rate of degradation of 96% of the initial boscalid to be achieved with a flow rate of the composition to be treated of 36 m^3/h and for an average residence time of the conveying composition in the sanitising device in the order of 19 seconds.

[3] = Example 6: pilot device, degradation of different amounts of boscalid (FIG. 7); assay type: physicochemical; settings: boscalid 25, 80 and 200 μg/l; hydrogen peroxide 2 mg/l continuously added; 6 m^3/h
Text: A semi-industrial pilot device in accordance with one aspect of the invention comprises a tank for recirculating water to be treated of a volume of 1000 l, a circulation pump ensuring a circulation flow of the water to be treated in a sanitising device with a flow rate between 4 m^3 to 8 m^3/h. The sanitising device comprises a photolysis chamber comprising an inlet for water from the recirculation tank and an outlet for sanitised water directed to the recirculation tank. The photolysis chamber is formed of a rigid tubular envelope, of which the external wall is opaque to light and forming an inner space suitable for receiving five fluorescent tubes with a longitudinal axis extending in parallel with the longitudinal axis of the rigid tubular envelope. The inner volume of the decontamination reactor is in the order of […].
The five fluorescent tubes are tubes of 200 W emitting light at a wavelength of 254 nm and arranged longitudinally in the tubular envelope at the five points of a regular pentagon and in contact with the water to be treated flowing in the photolysis chamber. In this configuration of the sanitising device, the water to be sanitised flowing in contact with the five fluorescent tubes is subjected to substantially homogeneous illumination in the order of 500 mJ/cm^2 for a circulation flow rate of water to be sanitised in the order of 6 m^3/h. […]

With `O=C(Nc1ccccc1-c1ccc(Cl)cc1)c1cccnc1Cl` [boscalid] the “rate of degradation between the inlet and outlet of the photolysis tank” value ([1]; 22 μg/l) was “greater than 90%”, the “boscalid concentration at the inlet of the photolysis tank (EC)” value (from here on “boscalid concentration at the inlet”) ([1]; time 0 hours) was 21.43 µg/L and the “C/C0 (inlet boscalid concentration over initial concentration)” value ([1]; time 1.25 hours) was 0.79. For the same compound, the S6E/EC ([1]; time 1.25 hours) was 92%, the “boscalid concentration at the inlet” value ([1]; time 1.25 hours) was 16.64 µg/L and the “boscalid concentration at the outlet of the sixth chamber (S6E)” value (“boscalid concentration at the outlet … (S6E)” for short) ([1]; time 1.25 hours) was 1.28 µg/L. For the same compound, the “C/C0 (inlet boscalid concentration over initial concentration)” value ([1]; time 2.5 hours) was 0.73, the S6E/EC ([1]; time 2.5 hours) was 94% and the “boscalid concentration at the inlet” value ([1]; time 2.5 hours) was 15.68 µg/L. The “boscalid concentration at the outlet … (S6E)” value ([1]; time 2.5 hours) was 0.99 µg/L, the “boscalid concentration at the outlet of the third chamber (S3E)” value (shortened to “boscalid concentration at the outlet … (S3E)”) ([1]; time 2.5 hours) was 3.96 µg/L and the “C/C0 (inlet boscalid concentration over initial concentration)” value ([1]; time 3.75 hours) was 0.73. For the same compound, the S6E/EC ([1]; time 3.75 hours) was 94%, the “boscalid concentration at the inlet” value ([1]; time 3.75 hours) was 15.56 µg/L and the “boscalid concentration at the outlet … (S6E)” value ([1]; time 3.75 hours) was 0.91 µg/L. The “boscalid concentration at the outlet … (S3E)” value ([1]; time 3.75 hours) was 3.38 µg/L, the “C/C0 (inlet boscalid concentration over initial concentration)” value ([1]; time 5 hours) was 0.66 and the S6E/EC ([1]; time 5 hours) was 94%. The “boscalid concentration at the inlet” value ([1]; time 5 hours) was 14.06 µg/L, the “boscalid concentration at the outlet … (S6E)” value ([1]; time 5 hours) was 0.56 µg/L and the “boscalid concentration at the outlet … (S3E)” value ([1]; time 5 hours) was 2.71 µg/L. The “C/C0 (inlet boscalid concentration over initial concentration)” value ([1]; time 7.5 hours) was 0.38, the “boscalid concentration at the inlet” value ([1]; time 7.5 hours) was 8.25 µg/L and the “boscalid concentration at the outlet … (S3E)” value ([1]; time 7.5 hours) was 1.78 µg/L. For the same compound, the “elimination from the conveying composition of the hydraulic conveyor” value ([1]; within 7.5 hours) was 62%, the “rate of degradation of the initial boscalid” value [2] was 96% and the “residual amount of boscalid” value [3] was “less than 80%”.

From US10919785B2, “Hydraulic conveyor of floating objects provided with a device for sanitising conveying composition, plant provided with such a conveyor and sanitising method” (MAF AGROBOTIC, priority 2016, dated 2021)
